Source: patent publication US9326506B2, “Preparation method, agricultural composition and applications of natural brassinolide analogs” (CHENGDU NEWSUN CROPSCIENCE CO., LTD, priority 2012, dated 2016)

Tested on: rice
Test: Low temperature assay on rice seedlings
Format: in vivo
Experimental: According to a low temperature assay, we measured parameters including plant height, number of leaf, area of leaf, number of tiller, weight of root at low temperature to completely determine effects of the natural brassinolide analogues on the resistance to low temperature of a plant.
The natural brassinolide analogues, BR1, BR2, BR3, BR4, BR5 and BR6, used herein, were those prepared by the method of Example 1. Respectively the analogues were dissolved into 95% (V/V) ethanol solution, and then diluted with pure water to 1 mg/L, 0.1 mg/L, 0.01 mg/L, 0.001 mg/L and 0.0001 mg/L. In addition, pure water was used as a control.
After rice seeds were disinfected by using 5% sodium hypochlorite solution treatment, they were rinsed with distilled water until their pH>7, placed into a petri dish in a dark incubator, and cultured by using water at 30° C.±2° C. for 9 days. Then respectively the nine-day-old etiolated seedlings of rice were immersed in the above solutions containing different concentrations of the natural brassinolide analogues or pure water, and cultured at the temperature of 1° C., 2° C., 3° C., 4° C. and 5° C. for 24 hr. The parameters including plant height, area of leaf and weight of root after 3, 6, 9 and 12 days and number of leaf and number of tiller after 12 days were measured.

SMILES: C=C(C(C)C)[C@@H](O)[C@H](O)[C@@H](C)[C@H]1CCC2C3COC(=O)C4C[C@H](O)[C@H](O)C[C@]4(C)C3CC[C@@]21C (stereo partly shown) [BR3]
- Height (0.01 mg/l, 3 °C, 9 days): 7.5 cm
- Weight of root (0.01 mg/l, 3 °C, 9 days): 2.9 g
- Area of leaf (0.01 mg/l, 3 °C, 12 days): 13.2 cm^2
- Height (0.01 mg/l, 3 °C, 12 days): 7.8 cm
- Number of leaf (0.01 mg/l, 3 °C, 12 days): 3
- Number of tiller (0.01 mg/l, 3 °C, 12 days): 2
- Weight of root (0.01 mg/l, 3 °C, 12 days): 2.9 g
- Area of leaf (0.01 mg/l, 4 °C, 3 days): 10.8 cm^2
- Height (0.01 mg/l, 4 °C, 3 days): 7.1 cm
- Weight of root (0.01 mg/l, 4 °C, 3 days): 2.5 g
- Area of leaf (0.01 mg/l, 4 °C, 6 days): 12.4 cm^2
- Height (0.01 mg/l, 4 °C, 6 days): 7.4 cm
- Weight of root (0.01 mg/l, 4 °C, 6 days): 2.6 g
- Area of leaf (0.01 mg/l, 4 °C, 9 days): 13 cm^2
- Height (0.01 mg/l, 4 °C, 9 days): 7.7 cm
- Weight of root (0.01 mg/l, 4 °C, 9 days): 2.9 g
- Area of leaf (0.01 mg/l, 4 °C, 12 days): 13.5 cm^2
- Height (0.01 mg/l, 4 °C, 12 days): 7.8 cm
- Number of leaf (0.01 mg/l, 4 °C, 12 days): 3
- Number of tiller (0.01 mg/l, 4 °C, 12 days): 2
- Weight of root (0.01 mg/l, 4 °C, 12 days): 3.0 g
- Area of leaf (0.01 mg/l, 5 °C, 3 days): 10.3 cm^2
- Height (0.01 mg/l, 5 °C, 3 days): 7.4 cm
- Weight of root (0.01 mg/l, 5 °C, 3 days): 2.8 g
- Area of leaf (0.01 mg/l, 5 °C, 6 days): 13.1 cm^2
- Height (0.01 mg/l, 5 °C, 6 days): 7.6 cm
- Weight of root (0.01 mg/l, 5 °C, 6 days): 3.0 g
- Area of leaf (0.01 mg/l, 5 °C, 9 days): 16.4 cm^2
- Height (0.01 mg/l, 5 °C, 9 days): 7.8 cm
- Weight of root (0.01 mg/l, 5 °C, 9 days): 3.4 g
- Area of leaf (0.01 mg/l, 5 °C, 12 days): 17 cm^2
- Height (0.01 mg/l, 5 °C, 12 days): 8.2 cm
- Number of leaf (0.01 mg/l, 5 °C, 12 days): 4
- Number of tiller (0.01 mg/l, 5 °C, 12 days): 3
- Weight of root (0.01 mg/l, 5 °C, 12 days): 3.9 g
- Area of leaf (0.1 mg/l, 1 °C, 3 days): 10.1 cm^2
- Height (0.1 mg/l, 1 °C, 3 days): 7.1 cm
- Weight of root (0.1 mg/l, 1 °C, 3 days): 2.8 g
- Area of leaf (0.1 mg/l, 1 °C, 6 days): 11 cm^2
- Height (0.1 mg/l, 1 °C, 6 days): 7.2 cm
- Weight of root (0.1 mg/l, 1 °C, 6 days): 2.9 g
- Area of leaf (0.1 mg/l, 1 °C, 9 days): 12.1 cm^2
- Height (0.1 mg/l, 1 °C, 9 days): 7.3 cm
- Weight of root (0.1 mg/l, 1 °C, 9 days): 3.4 g
- Area of leaf (0.1 mg/l, 1 °C, 12 days): 13.1 cm^2
- Height (0.1 mg/l, 1 °C, 12 days): 7.4 cm
- Number of leaf (0.1 mg/l, 1 °C, 12 days): 3
- Number of tiller (0.1 mg/l, 1 °C, 12 days): 3
- Weight of root (0.1 mg/l, 1 °C, 12 days): 3.6 g
- Area of leaf (0.1 mg/l, 2 °C, 3 days): 10.4 cm^2
- Height (0.1 mg/l, 2 °C, 3 days): 7.1 cm
- Weight of root (0.1 mg/l, 2 °C, 3 days): 2.8 g
- Area of leaf (0.1 mg/l, 2 °C, 6 days): 11.2 cm^2
- Height (0.1 mg/l, 2 °C, 6 days): 7.3 cm
- Weight of root (0.1 mg/l, 2 °C, 6 days): 3.0 g
- Area of leaf (0.1 mg/l, 2 °C, 9 days): 12.6 cm^2
- Height (0.1 mg/l, 2 °C, 9 days): 7.3 cm
- Weight of root (0.1 mg/l, 2 °C, 9 days): 3 g
- Area of leaf (0.1 mg/l, 2 °C, 12 days): 13.2 cm^2
- Height (0.1 mg/l, 2 °C, 12 days): 7.4 cm
- Number of leaf (0.1 mg/l, 2 °C, 12 days): 3
- Number of tiller (0.1 mg/l, 2 °C, 12 days): 3
- Weight of root (0.1 mg/l, 2 °C, 12 days): 3.2 g
- Area of leaf (0.1 mg/l, 3 °C, 3 days): 10.5 cm^2
- Height (0.1 mg/l, 3 °C, 3 days): 7.3 cm
- Weight of root (0.1 mg/l, 3 °C, 3 days): 2.5 g
- Area of leaf (0.1 mg/l, 3 °C, 6 days): 12 cm^2
- Height (0.1 mg/l, 3 °C, 6 days): 7.4 cm
- Weight of root (0.1 mg/l, 3 °C, 6 days): 2.7 g
- Area of leaf (0.1 mg/l, 3 °C, 9 days): 12.1 cm^2
- Height (0.1 mg/l, 3 °C, 9 days): 7.8 cm
- Weight of root (0.1 mg/l, 3 °C, 9 days): 2.7 g
- Area of leaf (0.1 mg/l, 3 °C, 12 days): 13.4 cm^2
- Height (0.1 mg/l, 3 °C, 12 days): 7.9 cm
- Number of leaf (0.1 mg/l, 3 °C, 12 days): 3
- Number of tiller (0.1 mg/l, 3 °C, 12 days): 2
- Weight of root (0.1 mg/l, 3 °C, 12 days): 2.9 g
- Area of leaf (0.1 mg/l, 4 °C, 3 days): 10.8 cm^2
- Height (0.1 mg/l, 4 °C, 3 days): 7.4 cm
- Weight of root (0.1 mg/l, 4 °C, 3 days): 2.5 g
- Area of leaf (0.1 mg/l, 4 °C, 6 days): 12 cm^2
- Height (0.1 mg/l, 4 °C, 6 days): 7.4 cm
- Weight of root (0.1 mg/l, 4 °C, 6 days): 2.7 g
- Area of leaf (0.1 mg/l, 4 °C, 9 days): 13.4 cm^2
- Height (0.1 mg/l, 4 °C, 9 days): 7.8 cm
- Weight of root (0.1 mg/l, 4 °C, 9 days): 2.9 g
- Area of leaf (0.1 mg/l, 4 °C, 12 days): 13.4 cm^2
- Height (0.1 mg/l, 4 °C, 12 days): 8.1 cm
- Number of leaf (0.1 mg/l, 4 °C, 12 days): 3
- Number of tiller (0.1 mg/l, 4 °C, 12 days): 2
- Weight of root (0.1 mg/l, 4 °C, 12 days): 3.1 g
- Area of leaf (0.1 mg/l, 5 °C, 3 days): 11 cm^2
- Height (0.1 mg/l, 5 °C, 3 days): 7.5 cm
- Weight of root (0.1 mg/l, 5 °C, 3 days): 2.9 g
- Area of leaf (0.1 mg/l, 5 °C, 6 days): 12.1 cm^2
- Height (0.1 mg/l, 5 °C, 6 days): 7.5 cm
- Weight of root (0.1 mg/l, 5 °C, 6 days): 3.2 g
- Area of leaf (0.1 mg/l, 5 °C, 9 days): 16.2 cm^2
- Height (0.1 mg/l, 5 °C, 9 days): 8 cm
- Weight of root (0.1 mg/l, 5 °C, 9 days): 3.5 g
- Area of leaf (0.1 mg/l, 5 °C, 12 days): 17.9 cm^2
- Height (0.1 mg/l, 5 °C, 12 days): 8.1 cm
- Number of leaf (0.1 mg/l, 5 °C, 12 days): 3
- Number of tiller (0.1 mg/l, 5 °C, 12 days): 2
- Weight of root (0.1 mg/l, 5 °C, 12 days): 4.1 g
- Area of leaf (1 mg/l, 1 °C, 3 days): 10 cm^2
- Height (1 mg/l, 1 °C, 3 days): 7.2 cm
- Weight of root (1 mg/l, 1 °C, 3 days): 2.6 g
- Area of leaf (1 mg/l, 1 °C, 6 days): 11 cm^2
- Height (1 mg/l, 1 °C, 6 days): 7.2 cm
- Weight of root (1 mg/l, 1 °C, 6 days): 3.1 g
- Area of leaf (1 mg/l, 1 °C, 9 days): 12.4 cm^2
- Height (1 mg/l, 1 °C, 9 days): 7.3 cm
- Weight of root (1 mg/l, 1 °C, 9 days): 3.1 g
- Area of leaf (1 mg/l, 1 °C, 12 days): 13 cm^2
- Height (1 mg/l, 1 °C, 12 days): 7.9 cm
- Number of leaf (1 mg/l, 1 °C, 12 days): 3
- Number of tiller (1 mg/l, 1 °C, 12 days): 3
- Weight of root (1 mg/l, 1 °C, 12 days): 3.7 g
- Area of leaf (1 mg/l, 2 °C, 3 days): 10.2 cm^2
- Height (1 mg/l, 2 °C, 3 days): 7.2 cm
- Weight of root (1 mg/l, 2 °C, 3 days): 2.6 g
- Area of leaf (1 mg/l, 2 °C, 6 days): 11.7 cm^2
- Height (1 mg/l, 2 °C, 6 days): 7.2 cm
- Weight of root (1 mg/l, 2 °C, 6 days): 3.0 g
- Area of leaf (1 mg/l, 2 °C, 9 days): 12 cm^2
- Height (1 mg/l, 2 °C, 9 days): 7.4 cm
- Weight of root (1 mg/l, 2 °C, 9 days): 3.2 g
- Area of leaf (1 mg/l, 2 °C, 12 days): 13 cm^2
- Height (1 mg/l, 2 °C, 12 days): 8 cm
- Number of leaf (1 mg/l, 2 °C, 12 days): 3
- Number of tiller (1 mg/l, 2 °C, 12 days): 3
- Weight of root (1 mg/l, 2 °C, 12 days): 3.7 g
- Area of leaf (1 mg/l, 3 °C, 3 days): 10.4 cm^2
- Height (1 mg/l, 3 °C, 3 days): 7.4 cm
- Weight of root (1 mg/l, 3 °C, 3 days): 2.5 g
- Area of leaf (1 mg/l, 3 °C, 6 days): 12 cm^2
- Height (1 mg/l, 3 °C, 6 days): 7.5 cm
- Weight of root (1 mg/l, 3 °C, 6 days): 2.6 g
- Area of leaf (1 mg/l, 3 °C, 9 days): 12 cm^2
- Height (1 mg/l, 3 °C, 9 days): 7.7 cm
- Weight of root (1 mg/l, 3 °C, 9 days): 2.7 g
- Area of leaf (1 mg/l, 3 °C, 12 days): 13.2 cm^2
- Height (1 mg/l, 3 °C, 12 days): 8.1 cm
- Number of leaf (1 mg/l, 3 °C, 12 days): 3
- Number of tiller (1 mg/l, 3 °C, 12 days): 2
- Weight of root (1 mg/l, 3 °C, 12 days): 2.9 g
- Area of leaf (1 mg/l, 4 °C, 3 days): 10.9 cm^2
- Height (1 mg/l, 4 °C, 3 days): 7.4 cm
- Weight of root (1 mg/l, 4 °C, 3 days): 2.5 g
- Area of leaf (1 mg/l, 4 °C, 6 days): 12 cm^2
- Height (1 mg/l, 4 °C, 6 days): 7.5 cm
- Weight of root (1 mg/l, 4 °C, 6 days): 2.7 g
- Area of leaf (1 mg/l, 4 °C, 9 days): 13.2 cm^2
- Height (1 mg/l, 4 °C, 9 days): 7.8 cm
- Weight of root (1 mg/l, 4 °C, 9 days): 3.0 g
- Area of leaf (1 mg/l, 4 °C, 12 days): 14 cm^2
- Height (1 mg/l, 4 °C, 12 days): 8.2 cm
- Number of leaf (1 mg/l, 4 °C, 12 days): 3
- Number of tiller (1 mg/l, 4 °C, 12 days): 2
- Weight of root (1 mg/l, 4 °C, 12 days): 3.2 g
- Area of leaf (1 mg/l, 5 °C, 3 days): 11.1 cm^2
- Height (1 mg/l, 5 °C, 3 days): 7.4 cm
- Weight of root (1 mg/l, 5 °C, 3 days): 2.9 g
- Area of leaf (1 mg/l, 5 °C, 6 days): 13.1 cm^2
- Height (1 mg/l, 5 °C, 6 days): 7.5 cm
- Weight of root (1 mg/l, 5 °C, 6 days): 3.5 g
- Area of leaf (1 mg/l, 5 °C, 9 days): 18 cm^2
- Height (1 mg/l, 5 °C, 9 days): 8.2 cm
- Weight of root (1 mg/l, 5 °C, 9 days): 3.7 g
- Area of leaf (1 mg/l, 5 °C, 12 days): 20 cm^2
- Height (1 mg/l, 5 °C, 12 days): 8.3 cm
- Number of leaf (1 mg/l, 5 °C, 12 days): 3
- Number of tiller (1 mg/l, 5 °C, 12 days): 2
- Weight of root (1 mg/l, 5 °C, 12 days): 4.5 g
